Assays:
[1] = target: T1, androgen receptor (AR-LBD) (Rattus norvegicus, UniProt P15207); assay: Evaluation of androgen receptor affinity (PolarScreen Androgen Receptor Competitor Assay Kit, Red; fluorescence polarization); conditions: 22° C. for 5 hours, relative to binding rate of 1 μM DHT, read-out: AR affinity (pEC50) (converted)
T1 construct: 5 μL of 2×AR-LBD/Fluoromone AL Red Complex contained in the kit; purchased Invitrogen
T1 sequence (P15207 651-882 limits assumed): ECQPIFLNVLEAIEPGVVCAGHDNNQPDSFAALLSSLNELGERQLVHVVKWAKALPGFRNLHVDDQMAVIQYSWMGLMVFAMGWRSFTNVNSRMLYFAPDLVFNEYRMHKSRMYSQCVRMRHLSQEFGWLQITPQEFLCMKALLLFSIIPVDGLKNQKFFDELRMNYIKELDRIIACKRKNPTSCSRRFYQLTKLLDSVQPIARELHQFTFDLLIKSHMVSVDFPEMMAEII
In short: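 FP competition: compound + AR-LBD/Fluoromone AL Red tracer complex, 22° C, 5 h. Reference 1 μM DHT binding rate; pEC50 by 4-parameter fit.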

human androgen receptor = target: T2, human androgen receptor (Homo sapiens, UniProt P10275); assay: Reporter assay of an androgen receptor responsive sequence (luciferase, transiently transfected HEK293 cells); format: cell-based; conditions: 24 hours incubation, relative to activity of 100 nM DHT, read-out: AR transcriptive activity (pEC50) (converted)
T2 construct: expressed in transfected cells; host or cells: HEK293
T2 sequence (P10275 1-920): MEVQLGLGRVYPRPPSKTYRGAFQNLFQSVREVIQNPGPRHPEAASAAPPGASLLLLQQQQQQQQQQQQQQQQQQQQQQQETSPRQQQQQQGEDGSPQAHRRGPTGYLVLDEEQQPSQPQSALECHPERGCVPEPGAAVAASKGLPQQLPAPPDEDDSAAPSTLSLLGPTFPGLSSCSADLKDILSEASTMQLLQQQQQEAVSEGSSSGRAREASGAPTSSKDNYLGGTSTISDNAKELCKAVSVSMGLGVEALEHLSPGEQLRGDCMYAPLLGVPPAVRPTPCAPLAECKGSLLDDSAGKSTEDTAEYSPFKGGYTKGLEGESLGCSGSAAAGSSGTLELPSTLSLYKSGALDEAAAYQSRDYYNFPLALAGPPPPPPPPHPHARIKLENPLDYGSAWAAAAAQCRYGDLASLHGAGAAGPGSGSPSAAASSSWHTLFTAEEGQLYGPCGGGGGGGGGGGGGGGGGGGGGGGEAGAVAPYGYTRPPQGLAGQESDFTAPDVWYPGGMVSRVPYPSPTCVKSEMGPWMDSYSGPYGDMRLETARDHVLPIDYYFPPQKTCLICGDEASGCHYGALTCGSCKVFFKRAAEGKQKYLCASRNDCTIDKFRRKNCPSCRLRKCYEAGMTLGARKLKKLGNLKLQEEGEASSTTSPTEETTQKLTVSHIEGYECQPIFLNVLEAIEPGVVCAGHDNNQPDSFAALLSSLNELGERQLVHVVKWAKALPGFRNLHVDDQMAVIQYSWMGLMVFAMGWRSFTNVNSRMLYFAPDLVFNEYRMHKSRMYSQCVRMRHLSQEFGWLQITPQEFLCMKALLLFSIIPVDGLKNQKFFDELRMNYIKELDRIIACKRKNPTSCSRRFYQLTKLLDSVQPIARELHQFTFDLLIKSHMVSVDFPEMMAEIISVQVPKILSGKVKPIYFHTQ
Experimental: Reporter Assay of an Androgen Receptor Responsive Sequence
To examine the agonist activity of compounds for androgen, a reporter assay using an androgen receptor responsive sequence was conducted.
Using Lipofectamine 2000 (Invitrogen), a plasmid mixture (pGL4-ARE (200 ng/well), pcDNA3-hAR (20 ng/well), pRL-TK (Promega) (150 ng/well)) was transiently transfected into HEK293 cells. The contents of the plasmid (mixture) are as follows:
pGL4-ARE is a reporter plasmid containing firefly luciferase sequence under the control of androgen receptor responsive sequence; pcDNA3-hAR is a plasmid containing full-length sequence of human androgen receptor under the constant control of CMV promoter; pRL-TK is a plasmid containing Renilla Luciferase sequence under the control of herpes simplex virus thymidine kinase and used as an internal standard for evaluations of transfection efficiency and compound toxicity.
After the incubation of Lipofectamine 2000 and the plasmid mixture in Opti-MEM for 20 minutes, the mixture was mixed with a cell suspension prepared with Opti-MEM in the similar way, and the cell suspension was plated to a 96-well plate at 20000 cells/well. The transfection was conducted by incubating the plates under the condition of 5% CO2 at 37° C. for 3 hours. Three hours after the transfection, the culture medium was removed and a compound solution prepared by DMEM supplemented with 5% FBS and treated with charcoal was added, and the mixture was incubated under the condition of 5% CO2 at 37° C. for 24 hours. After the incubation with the compound, luciferase activities were measured with a luminometer using Dual-Glo™ Luciferase Assay System (Promega). The measurement of the luciferase activities was performed in accordance with the protocol recommended by Promega. The activity of the compound was determined by comparing to the activity of 100 nM of DHT, and quantified the logarithm value (pEC50) of reciprocal value of the effective concentration of the compound which is equal to 50% of the activity value by applying a 4 parameter goodness-of-fit calculation.

Row | SMILES | EC50 [1] | EC50 (human androgen receptor)
1 | Cc1sc(N(Cc2ccccc2)c2ccc(OC(F)(F)F)cc2)nc1C(=O)NS(C)(=O)=O [Compound 34, 2-[N-benzyl-4-(trifluoromethoxy)anilino]-5-methyl-N-methylsulfonyl-thiazole-4-carboxamide] | 63.1 nM | 3160 nM
2 | Cc1sc(N(Cc2cccc(OC(C)C)c2)c2ccc(C#N)cc2)nc1C(=O)NS(C)(=O)=O [Compound 585, 2-[4-cyano-N-[(3-isopropoxyphenyl)methyl]anilino]-5-methyl-N-methylsulfonyl-thiazole-4-carboxamide] | 79.4 nM | 501 nM
3 | Cc1sc(N(Cc2ccc(Cl)cc2)[C@H]2C[C@@H]2c2ccccc2)nc1C(=O)NS(C)(=O)=O (racemic) [Compound 150, 2-[(4-chlorophenyl)methyl-(trans-2-phenylcyclopropyl)amino]-5-methyl-N-methylsulfonyl-thiazole-4-carboxamide] | 79.4 nM | 631 nM
4 | Cc1sc(N(Cc2ccc(OC(F)(F)F)c(F)c2)c2ccc(C#N)cc2)nc1C(=O)NS(C)(=O)=O [Compound 420, 2-[4-cyano-N-[[3-fluoro-4-(trifluoromethoxy)phenyl]methyl]anilino]-5-methyl-N-methylsulfonyl-thiazole-4-carboxamide] | 20 nM | 158 nM
5 | Cc1sc(N(Cc2ccc(F)cc2F)c2ccc(C#N)cc2)nc1C(=O)NS(C)(=O)=O [Compound 104, 2-[4-cyano-N-[(2,4-difluorophenyl)methyl]anilino]-5-methyl-N-methylsulfonyl-thiazole-4-carboxamide] | 50.1 nM | 126 nM
6 | Cc1sc(N(CCOc2ccccc2)c2ccc(C#N)cc2)nc1C(=O)NS(C)(=O)=O [Compound 20, 2-[4-cyano-N-(2-phenoxyethyl)anilino]-5-methyl-N-methylsulfonyl-thiazole-4-carboxamide] | 63.1 nM | 1580 nM
7 | Cc1sc(N(Cc2ccccc2)c2ccc(Cl)cc2)nc1C(=O)NS(C)(=O)=O [Compound 31, 2-(N-benzyl-4-chloro-anilino)-5-methyl-N-methylsulfonyl-thiazole-4-carboxamide] | 100 nM | 2510 nM
8 | Cc1sc(N(Cc2cccc(Oc3ccccc3)c2)c2ccc(C#N)cc2)nc1C(=O)NS(C)(=O)=O [Compound 82, 2-[4-cyano-N-[(3-phenoxyphenyl)methyl]anilino]-5-methyl-N-methylsulfonyl-thiazole-4-carboxamide] | 79.4 nM | > 10000 nM
9 | Cc1sc(N(CCn2cc(C#N)cn2)Cc2ccccc2)nc1C(=O)NS(C)(=O)=O [Compound 326, 2-[benzyl-[2-(4-cyanopyrazol-1-yl)ethyl]amino]-5-methyl-N-methylsulfonyl-thiazole-4-carboxamide] | 631 nM | 1000 nM
10 | Cc1sc(N(Cc2ccccc2)c2ccc(C#N)c(F)c2)nc1C(=O)NS(C)(=O)=O [Example 222, 2-(N-benzyl-4-cyano-3-fluoro-anilino)-5-methyl-N-methylsulfonyl-thiazole-4-carboxamide] | 200 nM | 251 nM
11 | Cc1oc(N(CCc2ccc(C#N)cc2)Cc2ccc(F)cc2Cl)nc1C(=O)NS(C)(=O)=O [Compound 554, 2-[(2-chloro-4-fluoro-phenyl)methyl-[2-(4-cyanophenyl)ethyl]amino]-5-methyl-N-methylsulfonyl-oxazole-4-carboxamide] | 39.8 nM | 794 nM

Second part, the molecule after the results:

Row | EC50 [1] | EC50 (human androgen receptor) | SMILES
12 | 200 nM | 501 nM | CS(=O)(=O)NC(=O)c1nc(N(Cc2ccc(Cl)cn2)c2ccc(C(F)(F)F)nc2)sc1Br [Compound 644, 5-bromo-2-[(5-chloro-2-pyridyl)methyl-[6-(trifluoromethyl)-3-pyridyl]amino]-N-methylsulfonyl-thiazole-4-carboxamide]
13 | 63.1 nM | 1260 nM | Cc1sc(N(Cc2cccc(N3CCCC3)c2)c2ccc(C#N)cc2)nc1C(=O)NS(C)(=O)=O [Example 216, 2-[4-cyano-N-[(3-pyrrolidin-1-ylphenyl)methyl]anilino]-5-methyl-N-methylsulfonyl-thiazole-4-carboxamide]
14 | 1000 nM | > 10000 nM | Cc1sc(N(Cc2ccc(N3CCCC3=O)cc2)c2ccc(C#N)cc2)nc1C(=O)NS(C)(=O)=O [Compound 589, 2-[4-cyano-N-[[4-(2-oxopyrrolidin-1-yl)phenyl]methyl]anilino]-5-methyl-N-methylsulfonyl-thiazole-4-carboxamide]
15 | 251 nM | 1260 nM | Cc1sc(N(CCc2cccc(C#N)c2)Cc2ccccc2)nc1C(=O)NS(C)(=O)=O [Compound 672, 2-[benzyl-[2-(3-cyanophenyl)ethyl]amino]-5-methyl-N-methylsulfonyl-thiazole-4-carboxamide]
16 | 39.8 nM | > 10000 nM | COCCCS(=O)(=O)NC(=O)c1nc(N(Cc2ccc(OC(F)F)cc2)c2ccc(C#N)cc2)sc1C1CC1 [Compound 666, 2-[4-cyano-N-[[4-(difluoromethoxy)phenyl]methyl]anilino]-5-cyclopropyl-N-(3-methoxypropylsulfonyl)thiazole-4-carboxamide]
17 | 79.4 nM | 126 nM | Cc1sc(N(Cc2ccc(F)c3cccnc23)c2ccc(C#N)cc2)nc1C(=O)NS(C)(=O)=O [Example 175, 2-[4-cyano-N-[(5-fluoro-8-quinolyl)methyl]anilino]-5-methyl-N-methylsulfonyl-thiazole-4-carboxamide]
18 | 100 nM | 200 nM | Cc1sc(N(Cc2ncc(Cl)cc2F)c2ccc(C#N)cc2)nc1C(=O)NS(C)(=O)=O [Example 168, 2-[N-[(5-chloro-3-fluoro-2-pyridyl)methyl]-4-cyano-anilino]-5-methyl-N-methylsulfonyl-thiazole-4-carboxamide]
19 | 31.6 nM | 63.1 nM | CS(=O)(=O)NC(=O)c1nc(N(Cc2cccc(OC(F)(F)F)c2)c2ccc(C#N)cc2)sc1Cl [Example 273, 5-chloro-2-[4-cyano-N-[[3-(trifluoromethoxy)phenyl]methyl]anilino]-N-methylsulfonyl-thiazole-4-carboxamide]
20 | 31.6 nM | 200 nM | CCc1oc(N(Cc2ccc(Br)c(Cl)c2)c2ccc(C#N)cc2)nc1C(=O)NS(C)(=O)=O [Compound 650, 2-[N-[(4-bromo-3-chloro-phenyl)methyl]-4-cyano-anilino]-5-ethyl-N-methylsulfonyl-oxazole-4-carboxamide]
21 | 63.1 nM | 1580 nM | Cc1sc(N(Cc2cccc(-n3cccn3)c2)c2ccc(C#N)cc2)nc1C(=O)NS(C)(=O)=O [Example 219, 2-[4-cyano-N-[(3-pyrazol-1-ylphenyl)methyl]anilino]-5-methyl-N-methylsulfonyl-thiazole-4-carboxamide]
